Test results published in publication PMC12775434, “Ultra-large virtual screening unveils potent agonists of the neuromodulatory orphan receptor GPR139” (Nature Communications, 2025).
Where “and” joins values, the source holds several entries; their conditions need not be identical. Equal values may be shown once. Read-outs that look alike come from different tables or passages of the source.

Tests used:
Format in all cases: cell-based
[1] = target: T1, human muscarinic acetylcholine M1 receptor (M1R) (Homo sapiens, UniProt P11229); experiment: Ca2+ mobilization counter-screen in M1R-CHOk1 cells; details: individual replicates (Supplementary Figure 5)
T1 sequence (P11229 1-460): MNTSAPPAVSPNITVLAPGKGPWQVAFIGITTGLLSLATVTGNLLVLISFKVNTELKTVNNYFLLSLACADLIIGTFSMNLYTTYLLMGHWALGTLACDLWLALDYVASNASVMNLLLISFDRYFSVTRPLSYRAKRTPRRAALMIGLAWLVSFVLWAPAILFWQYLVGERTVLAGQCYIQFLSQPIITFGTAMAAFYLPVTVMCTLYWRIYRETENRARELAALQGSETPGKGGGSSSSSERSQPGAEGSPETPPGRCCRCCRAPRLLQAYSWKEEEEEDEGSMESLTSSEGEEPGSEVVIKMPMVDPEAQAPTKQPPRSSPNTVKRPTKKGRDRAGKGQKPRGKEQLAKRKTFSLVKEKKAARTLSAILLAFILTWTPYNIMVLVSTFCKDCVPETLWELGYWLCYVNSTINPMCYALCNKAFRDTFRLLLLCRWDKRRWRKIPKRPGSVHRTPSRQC
Method: Primary screening and pharmacological characterization of compounds were performed using a CHO-K1 cell line that stably expresses human GPR139 (GPR139-CHOk1). The GPR139-CHOk1 cell line was kindly provided by H. Lundbeck A/S, Denmark[24]. GPR139-CHOk1 cells were grown in Ham’s F-12 Kaighn’s Modification Medium (ThermoFisher #21127030) supplemented with 10% dialyzed fetal bovine serum (US origin, ThermoFisher #26400044), 100 units/mL Penicillin-Streptomycin (ThermoFisher #15140122), and 1 mg/mL Geneticin (ThermoFisher #11811031). […] M1R-CHOk1 cells were purchased from The Missouri S&T cDNA Resource Center (#CEM100TN00). M1R-CHOk1 cells were grown in Ham’s F12 Medium (ThermoFisher #21765029) supplemented with 10% fetal bovine serum (Brazilian origin, ThermoFisher #10270106), 100 units/mL Penicillin-Streptomycin, and 0.25 mg/mL Geneticin. HEK293A cells transiently transfected with GPR139 were used for additional pharmacological assessment of signaling pathways activated by GPR139. HEK239A cells were generously provided by Dr. Asuka Inoue, Tohoku University, Japan. HEK293A cells were grown in Dulbecco’s Modified Eagle Medium (ThermoFisher #31966047) supplemented with 10% dialyzed fetal bovine serum and 100 units/mL Penicillin-Streptomycin. Cell lines were maintained at 37 °C in humidified incubator equilibrated with 5% CO2.
30,000 GPR139- or M1R-CHOk1 cells/well were seeded in black clear bottom tissue culture treated 96-well plates (Greiner #655090) and grown for 20–24 h. Cells were washed with HEPES buffer (Hank’s Balanced Salt Solution (HBBS) supplemented with 20 mM HEPES, 1 mM MgCl2, and 1 mM CaCl2; pH 7.4). Cells were loaded with 50 µL of 2 µM Fluo-4 AM dye (ThermoFisher #F14202) in HEPES buffer supplemented with 2.5 mM probenecid and 0.01% Pluronic F-68 (ThermoFisher #24040032) for 1 h at 37 °C. Cells were washed with HEPES buffer. 50 µL HEPES buffer supplemented with 2.5 mM probenecid was added, and the cells were incubated for 10 min at 37 °C before measurement. 50 µL test compounds diluted in HEPES buffer from DMSO stocks (final DMSO concentration of maximally 0.3%) were added automatically after baseline measurements. The intracellular calcium mobilization was measured on a FlexStation 3 Multimode Microplate Reader (Molecular Devices) at 37 °C with filters for excitation of 485 nm and emission of 525 nm.

[2] = target: T2, GPR139 (Homo sapiens, UniProt Q6DWJ6); experiment: Ca2+ mobilization assay, agonist mode, stable GPR139-CHOk1 cell line; details: for Emax: normalized to Lundbeck Cmp 1a, read-out: Emax (%) Ca2+
T2 sequence (Q6DWJ6 1-353): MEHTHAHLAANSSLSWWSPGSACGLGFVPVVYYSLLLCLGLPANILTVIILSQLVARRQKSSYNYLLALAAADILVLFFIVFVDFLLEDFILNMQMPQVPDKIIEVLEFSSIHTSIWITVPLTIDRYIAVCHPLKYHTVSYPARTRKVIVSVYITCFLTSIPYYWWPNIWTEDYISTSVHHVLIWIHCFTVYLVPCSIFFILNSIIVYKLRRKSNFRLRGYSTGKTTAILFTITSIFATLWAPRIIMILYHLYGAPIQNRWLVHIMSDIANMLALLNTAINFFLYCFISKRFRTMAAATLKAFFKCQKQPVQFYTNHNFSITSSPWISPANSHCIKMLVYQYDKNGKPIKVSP
Outline: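 Agonist activity of compounds is assessed in stably transfected CHO-K1 cells using the calcium dye Fluo-4 at 37 °C in HEPES-buffered HBSS (pH 7.4). Efficacy is expressed relative to the reference agonist Lundbeck Cmp 1a, set as 100%.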

[3] = target: T2, GPR139; experiment: Ca2+ mobilization assay, antagonist mode (EC80 800 nM Lundbeck Cmp 1a after 20 min preincubation), GPR139-CHOk1; details: individual replicates (Supplementary Figure 4)
Outline: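 Fluo-4-loaded GPR139-CHOk1 cells in HEPES-buffered HBSS (pH 7.4, 2.5 mM probenecid) given test compounds at 10 µM, then after 20 min challenged with 800 nM Lundbeck Cmp 1a (EC80). Calcium fluorescence read at 37 °C, 485/525 nm.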

[4] = Agonist mode, individual replicates (Supplementary Figure 4)
[5] = Supplementary Table 2, mean ± SEM, read-out: pEC50 Ca2+ (converted)
[6] = Supplementary Table 2, mean ± SEM
[7] = log [Compound] M = -4.5, individual replicate columns
[8] = log [Compound] M = -5.0, individual replicate columns
[9] = log [Compound] M = -5.5, individual replicate columns
[10] = log [Compound] M = -6.0, individual replicate columns
[11] = log [Compound] M = -6.5, individual replicate columns
[12] = log [Compound] M = -7.0, individual replicate columns
[13] = log [Compound] M = -7.5, individual replicate columns
[14] = log [Compound] M = -8.0, individual replicate columns
[15] = log [Compound] M = -8.5, individual replicate columns
[16] = log [Compound] M = -9.0, individual replicate columns

| EC50 [2, 5] [nM] | Emax [2, 6] [%] | EC50 ([2]; GPR139-CHOk1, read-out: EC50, Ca2+ mobilization) [nM] | Structure (SMILES) | Ca2+ signal (% of Carbachol) [1] | Ca2+ signal (% of Cmp 1a) [2, 4] | Ca2+ signal (% of Cmp 1a) [2, 7] | Ca2+ signal (% of Cmp 1a) [2, 8] | Ca2+ signal (% of Cmp 1a) [2, 9] | Ca2+ signal (% of Cmp 1a) [2, 10] | Ca2+ signal (% of Cmp 1a) [2, 11] | Ca2+ signal (% of Cmp 1a) [2, 12] | Ca2+ signal (% of Cmp 1a) [2, 13] | Ca2+ signal (% of Cmp 1a) [2, 14] | Ca2+ signal (% of Cmp 1a) [2, 15] | Ca2+ signal (% of Cmp 1a) [2, 16] | Ca2+ signal (% of Cmp 1a) [3] |
| --- | --- | --- | --- | --- | --- | --- | --- | --- | --- | --- | --- | --- | --- | --- | --- | --- |
| 200 | 86 ± 8 |  | Cc1ccc(-c2nc(CC(=O)NC(C)c3ccccc3)no2)s1 (stereo not drawn) [Compound 1.9, CC(C1=CC=CC=C1)NC(CC2=NOC(C3=CC=C(S3)C)=N2)=O] | -5 % of Carbachol and 6 % of Carbachol | 88 % of Cmp 1a and 93 % of Cmp 1a and 63 % of Cmp 1a | 76 % of Cmp 1a and 96 % of Cmp 1a and 87 % of Cmp 1a and 68 % of Cmp 1a | 86 % of Cmp 1a and 100 % of Cmp 1a and 93 % of Cmp 1a and 70 % of Cmp 1a | 70 % of Cmp 1a and 105 % of Cmp 1a and 84 % of Cmp 1a and 64 % of Cmp 1a | 66 % of Cmp 1a and 73 % of Cmp 1a and 71 % of Cmp 1a and 65 % of Cmp 1a | 37 % of Cmp 1a and 55 % of Cmp 1a and 47 % of Cmp 1a and 52 % of Cmp 1a | 12 % of Cmp 1a and 23 % of Cmp 1a and 28 % of Cmp 1a and 35 % of Cmp 1a | 2.33 % of Cmp 1a and 12 % of Cmp 1a and 15 % of Cmp 1a and 9 % of Cmp 1a | -1.67 % of Cmp 1a (2×) and -4 % of Cmp 1a and 0 % of Cmp 1a | -4.67 % of Cmp 1a and -2 % of Cmp 1a (2×) and 2 % of Cmp 1a | -5 % of Cmp 1a and 7 % of Cmp 1a and -15 % of Cmp 1a and -4.33 % of Cmp 1a | 1.67 % of Cmp 1a and 13 % of Cmp 1a |
|  | 111 ± 5 | 200 | COc1cccc(-c2nc(CC(=O)NC(C)c3ccccc3)no2)c1 (stereo not drawn) [Compound 1.10, COC1=CC(C2=NC(CC(NC(C3=CC=CC=C3)C)=O)=NO2)=CC=C1] | 12 % of Carbachol and -9 % of Carbachol and 13 % of Carbachol | 119 % of Cmp 1a and 102 % of Cmp 1a and 114 % of Cmp 1a | 112 % of Cmp 1a and 110 % of Cmp 1a and 101 % of Cmp 1a | 114 % of Cmp 1a (2×) and 92 % of Cmp 1a | 118 % of Cmp 1a and 113 % of Cmp 1a and 104 % of Cmp 1a | 92 % of Cmp 1a and 83 % of Cmp 1a and 79 % of Cmp 1a | 70 % of Cmp 1a and 58 % of Cmp 1a and 60 % of Cmp 1a | 51 % of Cmp 1a and 30 % of Cmp 1a and 40 % of Cmp 1a | 20 % of Cmp 1a and 5.67 % of Cmp 1a and 19 % of Cmp 1a | 10 % of Cmp 1a and -8 % of Cmp 1a and 0.333 % of Cmp 1a | 11 % of Cmp 1a and -17 % of Cmp 1a and 4 % of Cmp 1a | 16 % of Cmp 1a and -3 % of Cmp 1a and 6.33 % of Cmp 1a | 0.667 % of Cmp 1a and -2.67 % of Cmp 1a and -13 % of Cmp 1a |
| 200 | 105 ± 10 |  | Cc1csc(-c2nc(CC(=O)NC(C)c3ccccc3)no2)c1 (stereo not drawn) [Compound 1.11, CC(C1=CC=CC=C1)NC(CC2=NOC(C3=CC(C)=CS3)=N2)=O] | -8 % of Carbachol and 27 % of Carbachol and -10 % of Carbachol | 83 % of Cmp 1a and 63 % of Cmp 1a and 71 % of Cmp 1a | 119 % of Cmp 1a and 103 % of Cmp 1a and 72 % of Cmp 1a and 99 % of Cmp 1a | 117 % of Cmp 1a and 110 % of Cmp 1a and 94 % of Cmp 1a and 97 % of Cmp 1a | 109 % of Cmp 1a and 87 % of Cmp 1a and 67 % of Cmp 1a and 96 % of Cmp 1a | 94 % of Cmp 1a and 70 % of Cmp 1a and 59 % of Cmp 1a and 79 % of Cmp 1a | 69 % of Cmp 1a and 58 % of Cmp 1a and 32 % of Cmp 1a and 65 % of Cmp 1a | 58 % of Cmp 1a and 48 % of Cmp 1a and 20 % of Cmp 1a and 43 % of Cmp 1a | 38 % of Cmp 1a and -18 % of Cmp 1a and -19 % of Cmp 1a and 30 % of Cmp 1a | 31 % of Cmp 1a and 1.33 % of Cmp 1a and -4 % of Cmp 1a and 6.33 % of Cmp 1a | 6 % of Cmp 1a and 1.67 % of Cmp 1a and 4.67 % of Cmp 1a and 3.33 % of Cmp 1a | 10 % of Cmp 1a and 7 % of Cmp 1a and -2.67 % of Cmp 1a and 1.33 % of Cmp 1a | 0 % of Cmp 1a and -3 % of Cmp 1a and -25 % of Cmp 1a |
